Reference: patent US9365572B2, “PI3K and/or mTOR inhibitor” (XUANZHU PHARMA CO., LTD., priority 2012, dated 2016)

How the values were obtained:
ImidazolineI2, Central = assay: Radioligand binding assay No. 241000; settings: test substance 10 μM; rat
LCK = LCK (Homo sapiens (Human), UniProt P06239); assay: Kinase selectivity, Mobility shift assay; assay type: biochemical
Procedure: (§1) Object: In this assay, the inhibitory activity of the test substance on the kinases listed in Table 3 was determined, and therefore the selectivity of the present compound was determined.
(§2) Except for the BRAF V600E kinase in Table 3, the Mobility shift assay was used for other kinases.
(§3) 1. Preparation of Agents:
(§4) • 1.1 1-fold kinase buffer without MnCl2: 50 mM HEPES, pH 7.5, 0.0015% Brij-35, 10 mM MgCl2, 2 mM DTT. • 1.2 1-fold kinase buffer with MnCl2: 50 mM HEPES, pH 7.5, 0.0015% Brij-35, 10 mM MgCl2, 10 mM MnCl2, 2 mM DTT. • 1.3 Termination solution: 100 mM HEPES, pH 7.5, 0.0015% Brij-35, 0.2% Coating Reagent#3, 50 mM EDTA. • 1.4 2.5-fold kinase solution: The kinase was added to the 1-fold kinase buffer to form a 2.5-fold kinase solution. • 1.5 2.5-fold substrate solution: FAM fluorescence-labelled polypeptide and ATP were added to the 1-fold kinase buffer to form a 2.5-fold substrate solution. 2. Preparation of 5-fold compound
(§5) The final test concentration of the compound was 10 μM at maximum. Firstly, a 50-fold concentration (i.e. 500 μM) was prepared with 100% DMSO. The compound was diluted with 100% DMSO by 5 folds at 5 concentrations (successively 500 μM, 100 μM, 20 μM, 4 μM, and 0.8 μM). After diluting with 1-fold kinase buffer by 10 folds, 5 μl of the samples were transferred to a 384-well reaction plate. Two negative control wells and two positive control wells were set at each line respectively. Replication was made in a 96-well plate in five concentrations of 5-fold compound. 10% DMSO was added to the positive control well, and 5 μl of EDTA (250 mM) was added to the negative control well.
(§6) • 3.1 To the 384-well reaction plate was added 5-fold compound dissolved in 10% DMSO at 5 μl/well. • 3.2 To the 384-well reaction plate was added 2.5-fold kinase solution at 10 μl/well. […] 4. […] 2. […] 3. […] 4.

IRAK4 = IRAK4 (Homo sapiens (Human), UniProt Q9NWZ3); assay: Kinase selectivity, Mobility shift assay; assay type: biochemical
Procedure: as §1, §2, §3, §4, §5, §6

EphA1 = EphA1 (Homo sapiens (Human), UniProt P21709); assay: Kinase selectivity, Mobility shift assay; assay type: biochemical
Procedure: as §1, §2, §3, §4, §5, §6

FLT3 = FLT3 (Homo sapiens (Human), UniProt P36888); assay: Kinase selectivity, Mobility shift assay; assay type: biochemical
Procedure: as §1, §2, §3, §4, §5, §6

TAOK2 = TAOK2 (Homo sapiens (Human), UniProt Q9UL54); assay: Kinase selectivity, Mobility shift assay; assay type: biochemical
Procedure: as §1, §2, §3, §4, §5, §6

PKACa = PKACa (Homo sapiens (Human), UniProt P17612); assay: Kinase selectivity, Mobility shift assay; assay type: biochemical
Procedure: as §1, §2, §3, §4, §5, §6

AXL = AXL (Homo sapiens (Human), UniProt P30530); assay: Kinase selectivity, Mobility shift assay; assay type: biochemical
Procedure: as §1, §2, §3, §4, §5, §6

RSK2 = RSK2 (Homo sapiens (Human), UniProt P51812); assay: Kinase selectivity, Mobility shift assay; assay type: biochemical
Procedure: as §1, §2, §3, §4, §5, §6

ERK2 = ERK2 (Homo sapiens (Human), UniProt P28482); assay: Kinase selectivity, Mobility shift assay; assay type: biochemical
Procedure: as §1, §2, §3, §4, §5, §6

AURA = AURA (Homo sapiens (Human), UniProt O14965); assay: Kinase selectivity, Mobility shift assay; assay type: biochemical
Procedure: as §1, §2, §3, §4, §5
(§7) • 3.1 To the 384-well reaction plate was added 5-fold compound dissolved in 10% DMSO at 5 μl/well. • 3.2 To the 384-well reaction plate was added 2.5-fold kinase solution at 10 μl/well. The plate was incubated at room temperature for 10 mins. • 3.3 To the 384-well reaction plate was added 2.5-fold substrate solution at 10 μl/well. The plate was incubated at 28° C. for a certain period. • 3.4 25 μl termination solution was added to terminate the reaction. The conversion was read from Caliper. 4. Inhibition rate calculation Inhibition rate (%)=(maximum−sample value)/(maximum−minimum)×100 • wherein: • maximum refers to the conversion at the DMSO control well, • minimum refers to the conversion at the control well without kinase. Lanthascreen Analysis Method for the BRAF V600E Kinase 1. Preparation of Agents: • 1.1 2-fold kinase solution: using 1-fold kinase buffer to prepare 2-fold kinase solution, with a final concentration of 0.35 nM of BRAFV600E; • 1.2 4-fold substrate solution: using 1-fold kinase buffer to prepare 4-fold substrate solution, with a final substrate solution concentration of 0.2 μM of Fluorescein-MAP2K1 and 1.5 μM of ATP. 2. Preparation of 4-fold compound • The final test concentration of the compound was 10 μM at maximum. Firstly, a 100-fold concentration (i.e. 1000 μM) was prepared with 100% DMSO. The compound was diluted with 100% DMSO by 5 folds at 5 concentrations. The compound series was identical to that in the Mobility Shift Assay. After diluting with 1-fold kinase buffer by 25 folds, the resulting samples were shaked and mixed evenly on a plate-shaker for 10 mins. 3. Procedure • 3.1 To the 384-well reaction plate was added 4-fold compound dissolved in 10% DMSO at 2.5 µl/well; • 3.2 To the 384-well reaction plate was added 2-fold kinase solution at 5 μl/well, and to the negative control wells were added 1-fold kinase buffer. The samples were shaked, mixed evenly, and kept standing at room temperature. • 3.3 To the 384-well reaction plate was added 4-fold substrate solution at 2.5 μl/well. The plate was reacted, shaked, mixed evenly and incubated at room temperature for one hour; • 3.4 Reaction result detection: 2-fold detection solution was prepared, with a final concentration of 2 nM of Antibody and 10 mM of EDTA. 10 μl of the detection solution was transferred to the 384-well plate to terminate the reaction. […]

FES = FES (Homo sapiens (Human), UniProt P07332); assay: Kinase selectivity, Mobility shift assay; assay type: biochemical
Procedure: as §1, §2, §3, §4, §5, §7

AMPKa1 = AMPKa1 (Homo sapiens (Human), UniProt Q13131); assay: Kinase selectivity, Mobility shift assay; assay type: biochemical
Procedure: as §1, §2, §3, §4, §5, §7

p38a = p38a (Homo sapiens (Human), UniProt Q16539); assay: Kinase selectivity, Mobility shift assay; assay type: biochemical
Procedure: as §1, §2, §3, §4, §5, §7

EGFR = EGFR (Homo sapiens (Human), UniProt P00533); assay: Kinase selectivity, Mobility shift assay; assay type: biochemical
Procedure: as §1, §2, §3, §4, §5, §7

Sigmaσ1 = Sigmaσ1 (Homo sapiens (Human), UniProt Q99720); assay: Radioligand binding assay No. 278110; settings: test substance 10 μM, read-out: Inhibitory rate (%), Sigmaσ1
Adrenergic β1 = Adrenergic β1 (Homo sapiens (Human), UniProt P08588); assay: Radioligand binding assay No. 204010; settings: test substance 10 μM, read-out: Inhibitory rate (%), Adrenergic β1

Chain of AXL (P30530 26-894, species assumed): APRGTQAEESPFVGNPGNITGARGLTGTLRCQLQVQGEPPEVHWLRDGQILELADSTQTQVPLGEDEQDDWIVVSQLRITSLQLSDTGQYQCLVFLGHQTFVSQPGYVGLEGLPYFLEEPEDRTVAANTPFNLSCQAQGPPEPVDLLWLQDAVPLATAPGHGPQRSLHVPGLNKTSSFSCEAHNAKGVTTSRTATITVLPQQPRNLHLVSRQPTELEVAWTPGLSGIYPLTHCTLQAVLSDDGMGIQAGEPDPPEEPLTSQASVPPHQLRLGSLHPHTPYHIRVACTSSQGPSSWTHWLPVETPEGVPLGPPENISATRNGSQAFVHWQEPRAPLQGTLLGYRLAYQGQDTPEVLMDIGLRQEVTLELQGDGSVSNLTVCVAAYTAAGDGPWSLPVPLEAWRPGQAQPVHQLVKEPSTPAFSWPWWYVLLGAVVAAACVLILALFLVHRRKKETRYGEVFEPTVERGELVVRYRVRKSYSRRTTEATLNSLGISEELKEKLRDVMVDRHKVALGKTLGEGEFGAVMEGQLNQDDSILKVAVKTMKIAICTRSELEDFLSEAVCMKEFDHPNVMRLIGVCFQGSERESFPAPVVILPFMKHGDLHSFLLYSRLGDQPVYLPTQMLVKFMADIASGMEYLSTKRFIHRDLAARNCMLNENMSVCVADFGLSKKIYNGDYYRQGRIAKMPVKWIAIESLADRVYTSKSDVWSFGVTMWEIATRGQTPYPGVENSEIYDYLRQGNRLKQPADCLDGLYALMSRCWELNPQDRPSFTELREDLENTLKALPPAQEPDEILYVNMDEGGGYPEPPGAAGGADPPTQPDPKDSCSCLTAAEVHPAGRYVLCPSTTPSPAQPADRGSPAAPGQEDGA
Chain of LCK (P06239 whole entry, species assumed): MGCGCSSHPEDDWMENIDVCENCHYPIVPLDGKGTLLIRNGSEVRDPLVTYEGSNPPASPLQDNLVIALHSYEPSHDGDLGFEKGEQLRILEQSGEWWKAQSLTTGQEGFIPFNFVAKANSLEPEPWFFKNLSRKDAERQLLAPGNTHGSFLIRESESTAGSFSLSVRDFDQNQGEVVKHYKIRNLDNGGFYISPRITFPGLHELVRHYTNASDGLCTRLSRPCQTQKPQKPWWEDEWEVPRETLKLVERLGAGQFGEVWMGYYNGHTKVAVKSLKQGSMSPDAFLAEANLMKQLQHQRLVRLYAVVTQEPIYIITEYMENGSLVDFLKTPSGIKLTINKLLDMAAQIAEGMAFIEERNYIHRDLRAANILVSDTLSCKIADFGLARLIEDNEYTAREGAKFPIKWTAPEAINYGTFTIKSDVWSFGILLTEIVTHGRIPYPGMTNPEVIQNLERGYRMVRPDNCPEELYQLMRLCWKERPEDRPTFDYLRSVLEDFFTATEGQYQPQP
Chain of FLT3 (P36888 27-993, species assumed): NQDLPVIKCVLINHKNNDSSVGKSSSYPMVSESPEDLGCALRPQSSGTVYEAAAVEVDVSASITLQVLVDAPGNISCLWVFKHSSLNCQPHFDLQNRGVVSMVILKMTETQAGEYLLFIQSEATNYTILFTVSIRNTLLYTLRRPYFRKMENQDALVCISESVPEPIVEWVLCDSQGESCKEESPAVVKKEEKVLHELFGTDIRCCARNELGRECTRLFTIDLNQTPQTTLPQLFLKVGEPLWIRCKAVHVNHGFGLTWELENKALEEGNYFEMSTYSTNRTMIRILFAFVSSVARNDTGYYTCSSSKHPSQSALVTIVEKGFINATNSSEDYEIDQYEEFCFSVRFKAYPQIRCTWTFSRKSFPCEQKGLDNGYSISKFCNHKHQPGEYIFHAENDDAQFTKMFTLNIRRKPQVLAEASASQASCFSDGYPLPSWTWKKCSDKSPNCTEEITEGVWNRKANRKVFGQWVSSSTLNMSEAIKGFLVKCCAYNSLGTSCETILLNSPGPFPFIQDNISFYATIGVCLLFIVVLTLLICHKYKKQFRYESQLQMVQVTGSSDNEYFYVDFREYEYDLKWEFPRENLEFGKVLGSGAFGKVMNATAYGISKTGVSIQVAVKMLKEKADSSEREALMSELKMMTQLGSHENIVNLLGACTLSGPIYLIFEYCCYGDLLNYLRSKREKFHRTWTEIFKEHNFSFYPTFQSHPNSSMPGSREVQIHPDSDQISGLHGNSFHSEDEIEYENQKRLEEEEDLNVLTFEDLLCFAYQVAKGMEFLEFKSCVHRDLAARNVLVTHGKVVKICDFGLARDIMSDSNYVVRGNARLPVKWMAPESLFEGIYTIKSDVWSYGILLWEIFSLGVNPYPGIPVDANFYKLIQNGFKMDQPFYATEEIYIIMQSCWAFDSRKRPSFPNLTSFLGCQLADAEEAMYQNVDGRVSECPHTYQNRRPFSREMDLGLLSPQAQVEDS
Chain of FES (P07332 whole entry, species assumed): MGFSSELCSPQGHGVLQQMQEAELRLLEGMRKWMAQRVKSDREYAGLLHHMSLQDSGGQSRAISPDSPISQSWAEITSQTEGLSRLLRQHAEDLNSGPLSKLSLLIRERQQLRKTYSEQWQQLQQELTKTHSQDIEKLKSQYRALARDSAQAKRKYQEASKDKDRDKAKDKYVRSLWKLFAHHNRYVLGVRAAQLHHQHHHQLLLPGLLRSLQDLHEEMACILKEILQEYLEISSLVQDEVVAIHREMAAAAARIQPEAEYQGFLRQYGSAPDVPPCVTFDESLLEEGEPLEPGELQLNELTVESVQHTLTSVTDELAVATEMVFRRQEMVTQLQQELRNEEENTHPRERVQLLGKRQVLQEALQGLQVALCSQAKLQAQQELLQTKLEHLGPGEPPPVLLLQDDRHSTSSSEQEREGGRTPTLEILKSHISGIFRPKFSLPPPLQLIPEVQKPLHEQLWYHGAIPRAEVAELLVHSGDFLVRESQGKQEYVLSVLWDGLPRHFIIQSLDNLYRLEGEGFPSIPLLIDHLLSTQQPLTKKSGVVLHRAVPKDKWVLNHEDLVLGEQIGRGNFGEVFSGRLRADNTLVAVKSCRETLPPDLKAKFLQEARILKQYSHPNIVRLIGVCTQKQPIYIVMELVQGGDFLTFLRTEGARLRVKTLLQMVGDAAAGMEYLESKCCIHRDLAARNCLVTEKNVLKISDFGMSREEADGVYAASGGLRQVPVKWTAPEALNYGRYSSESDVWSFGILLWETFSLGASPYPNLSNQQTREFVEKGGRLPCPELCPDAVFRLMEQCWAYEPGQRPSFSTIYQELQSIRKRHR
Chain of ERK2 (P28482 whole entry, species assumed): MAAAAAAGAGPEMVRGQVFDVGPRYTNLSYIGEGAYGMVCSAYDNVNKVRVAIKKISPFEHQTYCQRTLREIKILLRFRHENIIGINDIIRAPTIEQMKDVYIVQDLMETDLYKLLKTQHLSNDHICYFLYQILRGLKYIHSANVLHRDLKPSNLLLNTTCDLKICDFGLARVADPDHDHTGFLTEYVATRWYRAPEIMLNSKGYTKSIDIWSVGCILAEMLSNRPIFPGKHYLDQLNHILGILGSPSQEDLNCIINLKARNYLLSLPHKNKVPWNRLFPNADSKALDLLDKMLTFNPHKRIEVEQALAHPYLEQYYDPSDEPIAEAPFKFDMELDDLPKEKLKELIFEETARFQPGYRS
Chain of TAOK2 (Q9UL54 whole entry, species assumed): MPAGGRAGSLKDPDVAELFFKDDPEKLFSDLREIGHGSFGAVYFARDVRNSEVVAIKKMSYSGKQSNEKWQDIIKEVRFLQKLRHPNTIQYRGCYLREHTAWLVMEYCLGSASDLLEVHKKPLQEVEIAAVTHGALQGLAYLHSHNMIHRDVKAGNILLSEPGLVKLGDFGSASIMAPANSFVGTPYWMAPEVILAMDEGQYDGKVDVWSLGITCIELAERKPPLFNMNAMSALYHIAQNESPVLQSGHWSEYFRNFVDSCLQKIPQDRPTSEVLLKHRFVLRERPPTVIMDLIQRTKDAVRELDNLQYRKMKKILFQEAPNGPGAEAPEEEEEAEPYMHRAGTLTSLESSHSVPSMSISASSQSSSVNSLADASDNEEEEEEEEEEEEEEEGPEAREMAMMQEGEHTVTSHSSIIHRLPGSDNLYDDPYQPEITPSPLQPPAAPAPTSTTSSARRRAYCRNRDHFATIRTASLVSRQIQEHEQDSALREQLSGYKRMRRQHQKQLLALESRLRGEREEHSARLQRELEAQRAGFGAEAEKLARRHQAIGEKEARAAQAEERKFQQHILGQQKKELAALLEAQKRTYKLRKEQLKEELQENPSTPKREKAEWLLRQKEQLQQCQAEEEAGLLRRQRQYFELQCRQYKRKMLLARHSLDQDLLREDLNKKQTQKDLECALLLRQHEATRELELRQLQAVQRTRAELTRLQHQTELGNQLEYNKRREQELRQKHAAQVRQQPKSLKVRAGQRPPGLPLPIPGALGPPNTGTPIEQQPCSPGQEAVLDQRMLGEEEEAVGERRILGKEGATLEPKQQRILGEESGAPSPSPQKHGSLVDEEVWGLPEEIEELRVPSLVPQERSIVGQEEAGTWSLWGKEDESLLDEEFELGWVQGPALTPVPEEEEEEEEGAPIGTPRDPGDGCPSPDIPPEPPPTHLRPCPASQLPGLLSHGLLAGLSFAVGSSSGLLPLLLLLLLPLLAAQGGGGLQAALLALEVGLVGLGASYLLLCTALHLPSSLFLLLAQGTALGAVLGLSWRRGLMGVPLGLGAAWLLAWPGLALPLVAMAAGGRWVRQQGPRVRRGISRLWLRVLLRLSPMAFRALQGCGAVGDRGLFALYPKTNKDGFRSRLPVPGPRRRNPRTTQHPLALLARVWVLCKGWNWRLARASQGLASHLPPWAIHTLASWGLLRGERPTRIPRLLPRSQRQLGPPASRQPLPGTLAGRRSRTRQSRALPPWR
Chain of Sigmaσ1 (Q99720 whole entry): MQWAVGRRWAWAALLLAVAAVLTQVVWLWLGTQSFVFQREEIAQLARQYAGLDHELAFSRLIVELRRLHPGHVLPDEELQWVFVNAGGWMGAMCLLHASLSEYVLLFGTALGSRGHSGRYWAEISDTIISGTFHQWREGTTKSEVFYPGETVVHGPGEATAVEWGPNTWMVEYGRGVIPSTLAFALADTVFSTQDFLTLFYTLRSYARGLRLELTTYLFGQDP

Which results are given for `Nc1ccc(-c2ccc3ncc4c(=O)[nH]c(=O)n(-c5cccc(C(F)(F)F)c5)c4c3n2)cn1` [Compound 5, 9-(6-aminopyridin-3-yl)-1-(3-(trifluoromethyl)phenyl)pyrimido[5,4-c][1,5]naphthyridine-2,4(1H,3H)-dione]?
Inhibitory rate (%), ImidazolineI2, Central (ImidazolineI2, Central): 0%; IC50 (LCK): 1130 nM; IC50 (IRAK4): > 10000 nM; IC50 (EphA1): 1470 nM; IC50 (FLT3): 6250 nM; IC50 (TAOK2): > 10000 nM; IC50 (PKACa): > 10000 nM; IC50 (AXL): 2140 nM; IC50 (RSK2): > 10000 nM; IC50 (ERK2): > 10000 nM; IC50 (AURA): > 10000 nM; IC50 (FES): > 10000 nM; IC50 (AMPKa1): > 10000 nM; IC50 (p38a): > 10000 nM; IC50 (EGFR): > 10000 nM; inhibition at 10 µM (Sigmaσ1): 13%; inhibition at 10 µM (Adrenergic β1): 0%
